Measurements reported in ChEMBL document CHEMBL1770141, “Quinolino-benzo-[5, 6]-dihydroisoquindolium compounds derived from berberine: a new class of highly selective ligands for G-quadruplex DNA in c-myc oncogene” (Eur J Med Chem, 2011).
The source made the active and inactive calls. The rule behind the calls is not given here.

What was measured:
HL-60 [1] = test: Cytotoxicity against human HL60 cells after 48 hrs by MTT assay; assay type: functional, cell-based; conditions: HL-60, 48 h
NCI-H460 = test: Cytotoxicity against human NCI-H460 cells after 48 hrs by MTT assay; assay type: functional, cell-based; conditions: NCI-H460, 48 h
[2] = Cytotoxicity against human GLC82 cells after 48 hrs by MTT assay; assay type: functional, cell-based; conditions: GLC82, 48 h
Nucleic Acid [3] = test: Thermal stability of F10T duplex DNA assessed as stabilization temperature at 2 uM by FRET assay; assay type: nucleic-acid assay
Nucleic Acid [4] = test: Inhibition of c-myc G-quadruplex formation in oligonucleotide Pu27 after 3 mins by PCR stop assay; assay type: nucleic-acid assay
ECV-304 [5] = test: Cytotoxicity against human ECV304 cells after 48 hrs by MTT assay; assay type: functional, cell-based; conditions: ECV-304, 48 h
Nucleic Acid [6] = test: Thermal stability of c-MYC FPu18T G-quadruplex DNA assessed as stabilization temperature at 2 uM by FRET assay; assay type: nucleic-acid assay
HL-60 [7] = test: Inhibition of c-myc gene transcription in human HL60 cells assessed as c-myc mRNA level normalized to GAPDH mRNA level by RT-PCR; assay type: functional, cell-based
HL-60 [8] = test: Induction of growth phase arrest in human HL60 cells expressing c-myc gene at 0.5 uM after 16 days; assay type: functional, cell-based
ECV-304 [9] = test: Induction of growth phase arrest in human ECV304 cells at 0.5 uM after 16 days; assay type: functional, cell-based
Nucleic Acid [10] = test: Thermal stability of c-MYC FPu18T G-quadruplex DNA assessed as stabilization temperature at 2 uM by FRET assay in presence of 10 uM duplex DNA competitor; assay type: nucleic-acid assay
ECV-304 [11] = test: Inhibition of c-myc gene transcription in human ECV304 cells assessed as c-myc mRNA level normalized to GAPDH mRNA level by RT-PCR; assay type: functional, cell-based
Nucleic Acid [12] = test: Binding affinity to oligonucleotide Pu18 DNA assessed as induction of Pu18G-quadruplex DNA at 262 nm bandwidth by circula dichroism spectroscopy; assay type: nucleic-acid assay
Nucleic Acid [13] = test: Binding affinity to oligonucleotide Pu18 DNA assessed as induction of Pu18G-quadruplex DNA positive shift to at 262 nm bandwidth by circula dichroism spectroscopy; assay type: nucleic-acid assay
Nucleic Acid [14] = test: Binding affinity to oligonucleotide Pu18 DNA assessed as induction of Pu18G-quadruplex DNA negative peak at 240 nm bandwidth by circula dichroism spectroscopy; assay type: nucleic-acid assay

Compound | IC50 (HL-60 [1]) | IC50 (NCI-H460) | IC50 [2] | ΔTm (Nucleic Acid [3]) | IC50 (Nucleic Acid [4]) | IC50 (ECV-304 [5]) | ΔTm (Nucleic Acid [6]) | inhibition (HL-60 [7]) | Activity (HL-60 [8]) | Activity (ECV-304 [9]) | ΔTm (Nucleic Acid [10]) | inhibition (ECV-304 [11]) | Activity (Nucleic Acid [12]) | Activity (Nucleic Acid [13]) | Activity (Nucleic Acid [14])
COc1ccc2cc3[n+](cc2c1NCCCN1CCOCC1)CCc1cc2c(cc1-3)OCO2 | 20.6 µM | > 100 µM | 85 µM | 0 °C | 4.8 µM | > 100 µM | 17 °C | – | – | – | – | – | – | – | –
COc1ccc2cc3[n+](c4c2c1N(CCCCCCN)C=C4)CCc1cc2c(cc1-3)OCO2 | 2 µM | 13 µM | 10 µM | 0.5 °C | 1.9 µM | > 100 µM | 29 °C | Active | Active | inactive | 27.5 °C | inactive | Active | Active | Active
COc1ccc2cc3[n+](c4c2c1N(CCN(C)C)C=C4)CCc1cc2c(cc1-3)OCO2 | 12 µM | 60 µM | 31 µM | 0 °C | 3.4 µM | > 100 µM | 20 °C | – | – | – | 19.5 °C | – | – | – | –
COc1ccc2cc3[n+](c4c2c1N(CCCN1CCOCC1)C=C4)CCc1cc2c(cc1-3)OCO2 | 12.6 µM | 36 µM | 30 µM | 0 °C | 4.3 µM | > 100 µM | 23 °C | – | – | – | 23 °C | – | – | – | –
COc1ccc2cc3[n+](c4c2c1N(CCCN(C)C)C=C4)CCc1cc2c(cc1-3)OCO2 | 8 µM | 9 µM | 5 µM | 0 °C | 3 µM | > 100 µM | 25 °C | – | – | – | 24 °C | – | – | – | –
COc1ccc2cc3[n+](cc2c1OC)CCc1cc2c(cc1-3)OCO2 | – | – | – | 2 °C | – | – | 1 °C | – | – | – | – | – | – | – | –
COc1ccc2cc3[n+](cc2c1NCCCN(C)C)CCc1cc2c(cc1-3)OCO2 | 27.5 µM | 64 µM | 29 µM | 1 °C | 3.3 µM | > 100 µM | 20 °C | – | – | – | – | – | – | – | –
COc1ccc2cc3[n+](cc2c1NCCN(C)C)CCc1cc2c(cc1-3)OCO2 | 38 µM | 56 µM | 36 µM | 0 °C | 3.9 µM | > 100 µM | 19 °C | – | – | – | – | – | – | – | –
COc1ccc2cc3[n+](cc2c1NCCCCCCN)CCc1cc2c(cc1-3)OCO2 | 5.5 µM | 9 µM | 4 µM | 2 °C | 2 µM | > 100 µM | 29 °C | Active | Active | Active | – | Active | – | – | –
